Earlier results, collected in patent US6436889B1, “Detergent compositions” (Unilever Home & Personal Care USA division of Conopco, Inc., priority 1999, dated 2002).
Like-named read-outs stand apart in the source and are kept apart here.

[1] = at 20° C., other common materials

Compound | Water Solubility [1] [g/100 g] | Water Solubility (grams of solid required to form a saturated solution in 100 grams of water at 20° C., highly water-soluble materials) [g/100 g]
O=BO[O-].[Na+] [Sodium perborate anhydrous] | 3.7 | 
O=P(O)(O)OP(=O)(O)OP(=O)(O)O [Sodium tripolyphosphate anhydrous] | 15 | 
NC(N)=O [Urea] |  | >100
